Experimental data from ChEMBL document CHEMBL4184150, “Microcystins: Synthesis and structure-activity relationship studies toward PP1 and PP2A” (Bioorg Med Chem, 2018).

How the values were obtained:
[1] = Inhibition of rabbit skeletal muscle PP2A catalytic subunit using [32P]-phosphorylase alpha as substrate pretreated for 10 mins followed by substrate addition; design: species or system Oryctolagus cuniculus
[2] = Inhibition of rabbit skeletal muscle PP1 catalytic subunit using [32P]-phosphorylase alpha as substrate pretreated for 10 mins followed by substrate addition; design: species or system Oryctolagus cuniculus
Oryctolagus cuniculus = organism: Oryctolagus cuniculus; experiment: Selectivity ratio of IC50 for rabbit skeletal muscle PP2A catalytic subunit to IC50 for rabbit skeletal muscle PP1 catalytic subunit
[3] = molecular target: Serine/threonine-protein phosphatase 2A catalytic subunit alpha isoform (Homo sapiens, UniProt P67775); experiment: Inhibition of recombinant human PP2A catalytic subunit L309 deletion mutant using DIFMUP as substrate pretreated for 10 mins followed by substrate addition measured every 15 secs for 30 mins by fluorescence assay
[4] = molecular target: Serine/threonine-protein phosphatase PP1-alpha catalytic subunit (Homo sapiens, UniProt P62136); experiment: Inhibition of recombinant PP1alpha catalytic subunit (unknown origin) using DIFMUP as substrate pretreated for 10 mins followed by substrate addition measured every 15 secs for 30 mins by fluorescence assay
Serine/threonine-protein phosphatase PP1-alpha catalytic subunit, sequence (P62136 whole entry): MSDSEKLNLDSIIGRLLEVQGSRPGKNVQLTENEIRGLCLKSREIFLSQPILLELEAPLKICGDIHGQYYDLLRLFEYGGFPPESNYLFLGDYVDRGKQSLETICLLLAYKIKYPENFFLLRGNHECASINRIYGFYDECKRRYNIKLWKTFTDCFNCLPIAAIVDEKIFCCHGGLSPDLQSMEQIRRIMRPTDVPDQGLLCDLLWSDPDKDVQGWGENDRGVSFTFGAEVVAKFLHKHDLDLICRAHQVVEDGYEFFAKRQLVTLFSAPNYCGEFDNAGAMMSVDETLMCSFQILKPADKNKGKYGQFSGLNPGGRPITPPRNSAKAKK

Serine/threonine-protein phosphatase 2A catalytic subunit alpha isoform, sequence (P67775 whole entry, looked up, canonical isoform): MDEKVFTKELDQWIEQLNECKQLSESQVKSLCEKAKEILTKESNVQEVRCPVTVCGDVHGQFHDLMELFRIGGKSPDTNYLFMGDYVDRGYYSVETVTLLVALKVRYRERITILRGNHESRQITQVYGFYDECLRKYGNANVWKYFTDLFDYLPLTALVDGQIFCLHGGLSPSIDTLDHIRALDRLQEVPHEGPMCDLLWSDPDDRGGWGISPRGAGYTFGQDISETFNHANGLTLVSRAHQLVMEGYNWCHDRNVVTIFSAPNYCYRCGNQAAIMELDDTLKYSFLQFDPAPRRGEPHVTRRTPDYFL

Structure (SMILES) | IC50 [1] [µM] | IC50 [2] [µM] | Ratio IC50 (Oryctolagus cuniculus) | IC50 [3] [µM] | IC50 [4] [µM]
C=C1C(=O)N[C@H](C)C(=O)N[C@@H](CC2CCCCC2)C(=O)N[C@@H](C(=O)O)[C@H](C)C(=O)N[C@@H](C)C(=O)N[C@@H](/C=C/C(C)=C/[C@H](C)[C@H](Cc2ccccc2)OC)[C@H](C)C(=O)N[C@@H](C(=O)O)CCC(=O)N1C | 0.0034 | 0.00052 | 7 |  | 
CC(C)C[C@@H]1NC(=O)[C@@H](C)NC(=O)CN(C)C(=O)CC[C@H](C(=O)O)NC(=O)[C@@H](C)[C@H](C)NC(=O)[C@H](Cc2ccccc2)NC(=O)C[C@H](C(=O)O)NC1=O |  |  |  | 0.9 | 254
